Data: patent US20180140703A1, “TUMOR RADIOSENSITIZATION WITH ANTIBODY CONJUGATES” (The Regents of the University California, priority 2016, published 2018)
Square brackets hold non-standard residues; d marks the D form. Peptide text beside a SMILES is read from it. * marks the point of attachment. Dolaproine = CO[C@@H]([C@@H]1CCCN1)[C@@H](C)C(=O)O; Dil = CC[C@H](C)[C@H](NC)[C@@H](CC(=O)O)OC; X1 = C[C@@H](N*)[C@@H](O)c1ccccc1; NMeV = CN[C@H](C(=O)O)C(C)C

Assays:
[1] = test system: CAL-27 (EGRF+) and OE19 (HER2+) cells; test: Alamar Blue cell viability assay; format: cell-based, human; details: dose range, 72-96 h
CAL-27 cells [2] = test: Phase contrast microscopy; format: cell-based, human; details: 2 nM overnight
Description: Cells were fixed at indicated times and imaged for Cy5 fluorescence (red). Nuclei stained with DAPI (blue). Scale bar, 10 gm. Representative images of three independent experiments. […] Nuclei stained with DAPI (blue). Scale bar, 10 gm. Representative images of three independent experiments. […] Representative data of two independent experiments. […] Representative images of three independent experiments. Scale bar, 50 gm.

CAL-27 tumour xenografts = test: In vivo tumour xenograft experiments (tumour growth); design: species or system mice; details: non-irradiated tumours; day 0 dose: 0.5 nmol cetuximab or C-MMAE, 2 nmol free MMAE
Description: (§4) CAL-27, OE19, NCI N87 and HCT116 tumour xenografts were established and tumour growth was measured with digital calipers. Tumour volume was measured blindly to treatment group and calculated using the formula as 1/2×length×width. Mice were randomized into groups once the average tumour volume reached >100=113. […] For irradiated mice, the tumour-bearing hindlimbs were focally irradiated while the remainder of the mouse was shielded from IR with custom designed lead blocking >95% of the dose as verified by dosimeters placed on the mouse. […] To prevent unnecessary morbidity, mice were killed if tumour length exceeded 15 mm per protocol Nonlinear regression least squares fit was used to calculate tumour volume doubling times. […] To minimize the number of mice used, tumours were grown in the bilateral flanks.

HER2+ tumor cells = test: Neutral comet assay following 2 Gy, FIG. 8; format: cell-based
Description: Neutral comet assay to measure DNA double strand breaks following 2 Gy of ionizing radiation (IR). IR increased comet tail length by 2.8 fold comapred to non-irradiated cells.

[3] = test system: CALU3 (EGFR+, HER2+) cells; test: Neutral comet assay; format: cell-based, human; details: 6 Gy, 2 nM overnight, vs vehicle or 20 nM antibody
Description: (§1) Cells were collected 15 min post IR, suspended in agarose gel and lysed per assay directions (Trevigen). Samples underwent electrophoresis under neutral conditions and were then stained with Sybr Green. Comet tails were counted in multiple fields (>60 cells per sample) and analysed using CometScore (TriTek Corp). Comet tail length was normalized to vehicle-treated, non-irradiated cells.

OE19 cells (HER2+) = test: Neutral comet assay; format: cell-based, human
Description: as §1

CAL-27 cells [4] = test: Clonogenic assay (SF2); format: cell-based, human; details: drug overnight then 2 Gy, mertansine 5 nM
Description: Following IR, cells were counted, re-plated at varying cell numbers in drug-free media. […] Surviving fraction at 2 Gy (SF2) was calculated as the fraction of cells surviving 2 Gy compared with non-irradiated cells.

OE19 cells [5] = test: Cell cycle (propidium iodide, flow cytometry); format: cell-based, human; details: treated overnight
Description: (§2) Cells were treated with RNAse, stained with propidium iodide (PI) and analysed by FACS using FloJo software.

CAL-27 cells [6] = test: Cell cycle (propidium iodide, flow cytometry); format: cell-based, human; details: treated overnight
Description: as §2

[7] = test system: HER2 expressing tumor cells; tumor cell lines; test: Cell survival by Alamar Blue assay, FIG. 7; format: cell-based; details: across tumor cell lines
Description: MMAF potency can be increased and cytotoxicity restricted by antibody conjugation. Cell survival measured by Alamar Blue assay.

HCT116 cells [8] = test: Clonogenic assay (SF2); format: cell-based, human; details: 5 nM mertansine overnight then 2 Gy
Description: Following IR, cells were counted, re-plated at varying cell numbers in drug-free media. 10-14 days after initial seeding formed colonies were methanol fixed, stained with crystal violet and counted. Surviving fraction at 2 Gy (SF2) was calculated as the fraction of cells surviving 2 Gy compared with non-irradiated cells.

HER2− cell lines = test: Neutral comet assay; format: cell-based, human; details: HER2− cells; 20 nM overnight, 2 Gy
Description: as §1

HER2+ cell lines = test: Neutral comet assay; format: cell-based, human; details: HER2+ cells; 20 nM overnight, 2 Gy
Description: as §1

HCT116 cells [9] = test: Cell cycle (propidium iodide, flow cytometry); format: cell-based, human; details: treated overnight
Description: as §2

[10] = test system: cell lines irrespective of HER2 expression; test: Alamar Blue cell viability assay, cells based on HER2 expression; design: species or system human; details: 72-96 h
CAL-27 cells [11] = test system: CAL-27 cells
Description: (§3) Alamar Blue (resazurin) was added to the cells and allowed to incubate for 2-4 h at 37° C. Plates were analysed using a plate reader with fluorescence measured at 560 nm.

OE19 tumour xenografts = test: Immunohistochemistry of tumour xenografts (pHistone H3, cleaved caspase 3); format: in vivo, mice; details: OE19 tumours harvested 48 h after injection
Description: Tissue sections were cut from blocks of formalin-fixed paraffin embedded xenografts. Four micron thick tissue sections were stained with antibodies to phosphohistone H3 (pH3, Abcam, catalogue number ab32107) and cleaved caspase-3 (C1C3, Cell Signaling Technology, catalogue number 9661) and used at dilutions of 1:300 and 1:900, respectively. Slides were stained on a Ventana Discovery Ultra (Ventana Medical Systems, Tucson, Ariz., USA). Antigen retrieval was performed using CC1 for 24-40 min at 95° C. The primary antibodies were incubated on the sections for 1 h at 37° C. Primary antibodies were visualized used DAB as a chromagen using the UltraMap system (Ventana Medical systems) followed by hematoxylin as a counterstain. Slides were rinsed, dehydrated through alcohol and xylene and coverslipped.
Immununostained slides were scanned using an Axio Scan.Z1 (Zeiss; Oberkochen, Germany). […] Whole-slide images were imported into Definiens Software for quantitative analysis (Definiens; Munich, Germany). […] For analysis of pH3 (a nuclear stain), the total number of nuclei and the total number of nuclei showing DAB staining (pH3 positive cells) were recorded within each ROI. The percent of positive nuclei was then calculated for each sample. For analysis of C1C3 (a cytoplasmic stain), mean DAB chromagen intensity was measured and calculated within the ROI for each sample.

[12] = test system: OE19 (HER2+) tumour xenografts; test: In vivo tumour xenograft experiments (tumour growth); design: species or system mice; details: for Tumour doubling time in days (mean, 95% CI): OE19
Description: as §4

HER2+ tumours = details: combined with IR
Description: CAL-27, OE19, NCI N87 and HCT116 tumour xenografts were established and tumour growth was measured with digital calipers. […] Mice were assigned to indicated groups in ‘Results’. […] For irradiated mice, the tumour-bearing hindlimbs were focally irradiated while the remainder of the mouse was shielded from IR with custom designed lead blocking >95% of the dose as verified by dosimeters placed on the mouse. […] To minimize the number of mice used, tumours were grown in the bilateral flanks.

OE19 cells [13] = test: Alamar Blue cell viability assay; format: cell-based, human; details: OE19 (HER2 cell line); 72-96 h
[14] = test system: NCI N87 (HER2+) tumour xenografts; test: In vivo tumour xenograft experiments (tumour growth); design: species or system mice; details: for Tumour doubling time in days (mean, 95% CI): NCI N87
Description: as §4

[15] = test system: HCT116 (HER2−) tumour xenografts; test: as above; design: species or system mice; details: for Tumour doubling time in days (mean, 95% CI): HCT116
Description: as §4

HCT116 cells [16] = details: HCT116 (HER2−); 72-96 h
Description: as §3

[17] = test system: NCI N87 (gastric cancer) cells; details: NCI N87 (HER2 cell line); 72-96 h
Description: as §3

[18] = 0.25 nmol day 0, 2.5 Gy days 1, 2 and 3
[19] = 0.25 nmol i.v. day 0 + IR 2.5 Gy days 1, 2 and 3, extrapolated

## CC[C@H](C)[C@@H]([C@@H](CC(=O)N1CCC[C@H]1[C@H](OC)[C@@H](C)C(=O)N[C@H](C)[C@@H](O)c1ccccc1)OC)N(C)C(=O)[C@@H](NC(=O)[C@@H](NC)C(C)C)C(C)C [MMAE, monomethyl auristatin E] (H-[NMeV]V[Dil][Dolaproine]-X1)
[1]
  cytotoxicity (cell viability): more potent compared with standard cytotoxic chemotherapies
CAL-27 cells [2]
  cell morphology: cells rounding up, indicative of G2/M
CAL-27 tumour xenografts
  tumour growth: delayed tumour growth
HER2+ tumor cells
  IR induced DNA damage (comet tail length): further increased IR induced DNA damage
[3]
  comet tail length after irradiation: increased comet tail length to a similar degree
OE19 cells (HER2+); 6 Gy, 2 nM overnight
  comet tail length after irradiation: further increased comet tail length
CAL-27 cells [4]
  surviving fraction following 2 Gy (SF2): decreased
OE19 cells [5]
  cell cycle profile (G2/M): cells accumulating in G2/M
CAL-27 cells [6]
  cell cycle profile (G2/M): cells accumulating in G2/M

## CC[C@H](C)[C@@H]([C@@H](CC(=O)N1CCC[C@H]1[C@H](OC)[C@@H](C)C(=O)N[C@@H](Cc1ccccc1)C(=O)O)OC)N(C)C(=O)[C@@H](NC(=O)[C@@H](NC)C(C)C)C(C)C [MMAF] (H-[NMeV]V[Dil][Dolaproine]F-OH)
[7]
  potency compared to MMAE: decreased potency compared to MMAE across tumor cell lines
HER2+ tumor cells
  IR induced DNA damage (comet tail length): not

## COc1cc2cc(c1Cl)N(C)C(=O)C[C@H](OC(=O)[C@H](C)N(C)C(=O)CCS)[C@]1(C)O[C@H]1[C@H](C)[C@@H]1C[C@@](O)(NC(=O)O1)[C@H](OC)/C=C/C=C(\C)C2 [mertansine]
HCT116 cells [8]
  surviving fraction following 2 Gy (SF2): decreased further
HER2− cell lines
  radiosensitization (IR induced DNA double-strand breaks): radiosensitized by increasing IR induced DNA double-strand breaks in both HER2+ and HER2− cell lines
HER2+ cell lines
  radiosensitization (IR induced DNA double-strand breaks): radiosensitized by increasing IR induced DNA double-strand breaks in both HER2+ and HER2− cell lines
CAL-27 cells [4]
  surviving fraction following 2 Gy (SF2): decreased further
OE19 cells [5]
  cell cycle profile (G2/M): increased the accumulation of both OE19 and HCT116 cells in the radiosensitive G2/M phase
HCT116 cells [9]
  cell cycle profile (G2/M): increased the accumulation of both OE19 and HCT116 cells in the radiosensitive G2/M phase
[10]; across cell lines, irrespective of HER2 expression
  IC50: 10 nM

## CC(=O)O[C@H]1C(=O)[C@@]2(C)[C@H]([C@H](OC(=O)c3ccccc3)[C@]3(O)C[C@H](OC(=O)[C@H](O)[C@@H](NC(=O)c4ccccc4)c4ccccc4)C(C)=C1C3(C)C)[C@]1(OC(C)=O)CO[C@@H]1C[C@@H]2O [paclitaxel]
CAL-27 cells [11]; HER2− CAL-27 cells
  cytotoxic potency (comparison): more potent than T-DM1

## ado-trastuzumab emtansine [T-DM1]
OE19 tumour xenografts
  apoptosis (cleaved caspase 3) in tumours: increased apoptosis
  cells in G2/M as measured by pS10 Histone H3: increased the number of cells in radiosensitive G2/M phase
[12]; [18]
  tumour regression, combined with IR: significantly prolonged tumour regression
[12]; [19]
  Tumour doubling time in days (mean, 95% CI): 66 (33+) days
[12]; 0.25 nmol i.v. day 0, no IR
  Tumour doubling time in days (mean, 95% CI): 11 (8-17) days
[12]; by day 22
  tumour control combined with IR vs other regimens: superior to all other treatment
[12]; single dose of 1 nmol, compared with control or trastuzumab by day 14
  tumour growth: equally efficacious in slowing tumour growth
HER2+ tumours
  long term tumour control (survival curve): long term tumour control was observed
OE19 cells [13]
  IC50: < 1 nM
HER2− cell lines
  radiosensitization (IR induced DNA double-strand breaks): appear inert to irradiated non-HER2 expressing cells
HER2+ cell lines
  radiosensitization (IR induced DNA double-strand breaks): restricted radiosensitization of HER2+cells
OE19 cells (HER2+); doses as low as 2 nM T-DM1
  radiosensitization (comet tail length): radiosensitized OE19 cells
OE19 cells [5]
  cell cycle profile (G2/M): blocked OE19 cells in G2/M
HCT116 cells [9]
  cell cycle profile (G2/M): resembled vehide-treated cells
[14]; [18]
  tumour regression, combined with IR: significantly prolonged tumour regression
[14]; [19]
  Tumour doubling time in days (mean, 95% CI): 113 (82-179) days
[14]; 0.25 nmol i.v. day 0, no IR
  Tumour doubling time in days (mean, 95% CI): 23 (21-25) days
[14]; by day 32
  tumour control combined with IR vs other regimens: superior to all other treatment
[15]; [18]
  benefit of adding drug to IR: showed no benefit of adding T-DM1 to IR
[15]; 0.25 nmol i.v. day 0 + IR 2.5 Gy days 1, 2 and 3
  Tumour doubling time in days (mean, 95% CI): 7 (5-12) days
[15]; 0.25 nmol i.v. day 0, no IR
  Tumour doubling time in days (mean, 95% CI): 3 (2-5) days
HCT116 cells [16]
  IC50: > 100 nM
[17]
  IC50: < 1 nM
CAL-27 cells [11]; CAL-27 (HER2−), 72-96 h
  IC50: > 100 nM
[10]
  potency in relation to HER2 expression: directly correlated with HER2 expression
